Results: ChEMBL document CHEMBL5465560, “Selectivity Literature for EUbOPEN Chemogenomic Library” (2024)

How the values were obtained:
[1] = molecular target: Death-associated protein kinase 2 (Homo sapiens) (UniProt Q9UIK4); experiment: Selectivity interaction (KinomeScan (DiscoverX)) EUB0001079a DAPK2; conditions: at 1 µM
[2] = molecular target: T1, 5-hydroxytryptamine receptor 2C (Homo sapiens) (UniProt P28335); experiment: Selectivity interaction (GPCR panel (PDSP screen)) EUB0001079a HTR2C; conditions: at 10 µM
T1 sequence (whole entry): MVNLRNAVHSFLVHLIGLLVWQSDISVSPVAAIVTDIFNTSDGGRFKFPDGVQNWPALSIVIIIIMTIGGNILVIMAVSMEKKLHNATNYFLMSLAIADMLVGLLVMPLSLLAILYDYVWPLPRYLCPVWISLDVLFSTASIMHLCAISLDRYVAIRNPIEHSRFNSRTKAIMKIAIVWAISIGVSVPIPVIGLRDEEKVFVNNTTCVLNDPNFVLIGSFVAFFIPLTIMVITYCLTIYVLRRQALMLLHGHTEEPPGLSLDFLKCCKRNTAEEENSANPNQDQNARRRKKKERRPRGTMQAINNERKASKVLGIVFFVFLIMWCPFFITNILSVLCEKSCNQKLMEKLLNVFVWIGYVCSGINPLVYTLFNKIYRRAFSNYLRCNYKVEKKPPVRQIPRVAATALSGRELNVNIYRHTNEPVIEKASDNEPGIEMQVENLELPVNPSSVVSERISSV

[3] = molecular target: T2, Serine/threonine-protein kinase DCLK2 (Homo sapiens) (UniProt Q8N568); experiment: Selectivity interaction (KinomeScan (DiscoverX)) EUB0001079a DCLK2; conditions: at 1 µM
T2 sequence (whole entry): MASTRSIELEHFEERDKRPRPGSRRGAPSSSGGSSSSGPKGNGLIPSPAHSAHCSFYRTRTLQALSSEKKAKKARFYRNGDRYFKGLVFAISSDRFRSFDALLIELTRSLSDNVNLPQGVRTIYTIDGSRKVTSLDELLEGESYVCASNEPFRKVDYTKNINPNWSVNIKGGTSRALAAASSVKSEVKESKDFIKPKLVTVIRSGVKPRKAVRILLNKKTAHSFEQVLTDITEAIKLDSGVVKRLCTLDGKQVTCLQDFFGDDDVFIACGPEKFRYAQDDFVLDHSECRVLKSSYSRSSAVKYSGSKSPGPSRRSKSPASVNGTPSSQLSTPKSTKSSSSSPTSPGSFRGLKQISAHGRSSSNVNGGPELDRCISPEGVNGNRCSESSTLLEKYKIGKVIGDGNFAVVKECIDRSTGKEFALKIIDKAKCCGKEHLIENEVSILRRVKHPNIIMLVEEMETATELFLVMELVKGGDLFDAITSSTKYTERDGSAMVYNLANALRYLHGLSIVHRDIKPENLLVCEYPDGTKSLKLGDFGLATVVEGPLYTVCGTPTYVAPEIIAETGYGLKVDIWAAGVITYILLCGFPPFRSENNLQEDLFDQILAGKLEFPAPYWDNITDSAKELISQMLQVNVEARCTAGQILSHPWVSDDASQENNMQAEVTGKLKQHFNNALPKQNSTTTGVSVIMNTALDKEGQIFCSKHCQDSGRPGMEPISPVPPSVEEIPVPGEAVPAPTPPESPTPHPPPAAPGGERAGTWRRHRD

[4] = molecular target: T3, Bone morphogenetic protein receptor type-2 (Homo sapiens) (UniProt Q13873); experiment: Selectivity interaction (KinomeScan (DiscoverX)) EUB0000666a BMPR2; conditions: at 10 µM
T3 sequence (whole entry): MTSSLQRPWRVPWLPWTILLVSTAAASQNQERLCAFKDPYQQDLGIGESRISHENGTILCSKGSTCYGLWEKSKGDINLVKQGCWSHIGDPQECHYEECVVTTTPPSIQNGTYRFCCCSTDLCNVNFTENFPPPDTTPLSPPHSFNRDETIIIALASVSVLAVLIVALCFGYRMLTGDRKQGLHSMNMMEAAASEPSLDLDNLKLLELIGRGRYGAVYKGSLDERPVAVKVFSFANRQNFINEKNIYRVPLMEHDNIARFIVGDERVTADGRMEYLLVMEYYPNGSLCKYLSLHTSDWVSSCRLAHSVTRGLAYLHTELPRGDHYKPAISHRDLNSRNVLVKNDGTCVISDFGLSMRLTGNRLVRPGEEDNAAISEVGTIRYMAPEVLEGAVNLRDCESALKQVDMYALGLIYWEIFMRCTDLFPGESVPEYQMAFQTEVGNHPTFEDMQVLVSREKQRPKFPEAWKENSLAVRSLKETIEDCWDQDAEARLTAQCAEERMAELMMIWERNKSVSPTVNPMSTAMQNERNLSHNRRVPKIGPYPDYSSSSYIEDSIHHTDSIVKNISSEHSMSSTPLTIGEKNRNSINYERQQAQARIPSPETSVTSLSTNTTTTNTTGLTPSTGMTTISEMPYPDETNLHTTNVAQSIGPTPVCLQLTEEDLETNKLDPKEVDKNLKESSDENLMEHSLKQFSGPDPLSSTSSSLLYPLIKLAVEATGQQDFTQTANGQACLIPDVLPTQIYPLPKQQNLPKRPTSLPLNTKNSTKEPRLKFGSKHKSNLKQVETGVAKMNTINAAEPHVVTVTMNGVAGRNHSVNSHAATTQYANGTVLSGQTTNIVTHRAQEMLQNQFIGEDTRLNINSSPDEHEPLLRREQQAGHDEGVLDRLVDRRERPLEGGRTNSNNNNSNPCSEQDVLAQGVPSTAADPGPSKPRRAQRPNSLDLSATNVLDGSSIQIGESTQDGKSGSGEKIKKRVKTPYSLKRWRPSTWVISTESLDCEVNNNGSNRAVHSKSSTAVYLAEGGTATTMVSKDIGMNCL

[5] = molecular target: 5-hydroxytryptamine receptor 1A (Homo sapiens, UniProt P08908); experiment: Selectivity interaction (Serotonin 5HT1A Calcium flux assay, agonist and antagonist mode ) EUB0000877a HTR1A
5-hydroxytryptamine receptor 1A, sequence (P08908 whole entry): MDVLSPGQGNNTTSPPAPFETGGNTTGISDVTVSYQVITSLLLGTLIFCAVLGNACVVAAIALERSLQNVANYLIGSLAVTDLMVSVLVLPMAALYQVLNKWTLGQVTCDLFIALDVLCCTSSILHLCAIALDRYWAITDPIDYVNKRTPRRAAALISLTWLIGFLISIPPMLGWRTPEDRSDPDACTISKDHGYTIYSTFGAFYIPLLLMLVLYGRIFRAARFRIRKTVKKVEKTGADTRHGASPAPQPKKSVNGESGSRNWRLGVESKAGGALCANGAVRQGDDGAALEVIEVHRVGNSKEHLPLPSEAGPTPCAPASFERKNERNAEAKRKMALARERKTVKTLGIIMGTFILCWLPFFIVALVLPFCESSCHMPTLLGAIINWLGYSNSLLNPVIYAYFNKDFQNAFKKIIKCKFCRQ

[6] = molecular target: Protein kinase C eta type (Homo sapiens) (UniProt P24723); experiment: Selectivity interaction (Kinase panel (Z-LYTE Assay)) EUB0001632a PRKCH; conditions: at 10 µM
Protein kinase C eta type (Homo sapiens), sequence (P24723 whole entry): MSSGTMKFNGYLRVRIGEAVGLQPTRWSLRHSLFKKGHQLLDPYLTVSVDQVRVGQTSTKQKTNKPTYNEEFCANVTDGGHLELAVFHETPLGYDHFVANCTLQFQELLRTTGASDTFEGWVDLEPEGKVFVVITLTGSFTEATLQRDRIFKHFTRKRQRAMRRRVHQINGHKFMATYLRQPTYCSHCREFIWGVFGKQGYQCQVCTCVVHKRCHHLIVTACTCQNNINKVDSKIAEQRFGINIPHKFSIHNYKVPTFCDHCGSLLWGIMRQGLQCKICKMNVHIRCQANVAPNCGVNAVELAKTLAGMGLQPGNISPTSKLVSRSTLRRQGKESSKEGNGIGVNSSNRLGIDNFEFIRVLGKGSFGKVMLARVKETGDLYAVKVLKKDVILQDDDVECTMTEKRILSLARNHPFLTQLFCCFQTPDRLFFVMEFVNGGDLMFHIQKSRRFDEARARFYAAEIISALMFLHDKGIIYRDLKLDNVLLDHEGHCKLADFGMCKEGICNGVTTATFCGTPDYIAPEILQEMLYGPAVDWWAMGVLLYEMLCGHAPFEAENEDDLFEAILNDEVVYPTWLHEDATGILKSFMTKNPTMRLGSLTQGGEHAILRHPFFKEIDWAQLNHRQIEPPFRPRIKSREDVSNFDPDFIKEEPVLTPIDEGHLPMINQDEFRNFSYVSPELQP

[7] = molecular target: Ribosomal protein S6 kinase alpha-5 (Homo sapiens) (UniProt O75582); experiment: Selectivity interaction (KinomeScan (DiscoverX)) EUB0001049a RPS6KA5; conditions: at 1 µM
Ribosomal protein S6 kinase alpha-5 (Homo sapiens), sequence (O75582 whole entry, looked up): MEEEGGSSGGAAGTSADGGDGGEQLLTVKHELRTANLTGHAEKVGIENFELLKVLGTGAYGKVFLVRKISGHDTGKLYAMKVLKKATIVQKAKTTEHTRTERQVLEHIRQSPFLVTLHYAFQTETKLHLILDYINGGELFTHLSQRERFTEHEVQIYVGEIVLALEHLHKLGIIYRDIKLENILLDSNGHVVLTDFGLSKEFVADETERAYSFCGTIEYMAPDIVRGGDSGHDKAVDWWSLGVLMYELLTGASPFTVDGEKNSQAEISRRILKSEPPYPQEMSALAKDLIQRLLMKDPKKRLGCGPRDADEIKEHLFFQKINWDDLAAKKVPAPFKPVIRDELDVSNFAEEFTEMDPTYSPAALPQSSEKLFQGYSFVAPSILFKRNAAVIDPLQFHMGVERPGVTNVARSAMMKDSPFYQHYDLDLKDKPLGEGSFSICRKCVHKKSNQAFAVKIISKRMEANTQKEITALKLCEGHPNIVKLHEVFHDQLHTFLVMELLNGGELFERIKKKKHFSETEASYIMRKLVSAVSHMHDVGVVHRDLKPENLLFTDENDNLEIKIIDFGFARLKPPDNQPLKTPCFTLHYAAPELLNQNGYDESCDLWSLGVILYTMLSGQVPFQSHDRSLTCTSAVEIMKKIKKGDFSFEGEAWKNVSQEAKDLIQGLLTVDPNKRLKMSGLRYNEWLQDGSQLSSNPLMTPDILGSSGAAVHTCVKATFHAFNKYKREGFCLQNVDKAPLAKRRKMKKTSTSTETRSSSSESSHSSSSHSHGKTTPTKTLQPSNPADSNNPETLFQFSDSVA

[8] = molecular target: Cyclin-dependent kinase 8 (Homo sapiens, UniProt P49336); experiment: Selectivity interaction (KinomeScan (DiscoverX)) EUB0001049a CDK8; conditions: at 1 µM
[9] = molecular target: Myosin light chain kinase 2, skeletal/cardiac muscle (Homo sapiens) (UniProt Q9H1R3); experiment: Selectivity interaction (Kinase panel (literature)) EUB0001199aCl MYLK2; conditions: at 1 µM
[10] = molecular target: Tyrosine-protein kinase JAK1 (Homo sapiens, UniProt P23458); experiment: Selectivity interaction (Kinase panel (Carna Biosciences)) EUB0001542aTs JAK1; conditions: at 1 µM
[11] = molecular target: Cyclin-dependent kinase 17 (Homo sapiens) (UniProt Q00537); experiment: Selectivity interaction (KinomeScan (DiscoverX)) EUB0000618a CDK17; conditions: at 10 µM
Cyclin-dependent kinase 17 (Homo sapiens), sequence (Q00537 whole entry, looked up): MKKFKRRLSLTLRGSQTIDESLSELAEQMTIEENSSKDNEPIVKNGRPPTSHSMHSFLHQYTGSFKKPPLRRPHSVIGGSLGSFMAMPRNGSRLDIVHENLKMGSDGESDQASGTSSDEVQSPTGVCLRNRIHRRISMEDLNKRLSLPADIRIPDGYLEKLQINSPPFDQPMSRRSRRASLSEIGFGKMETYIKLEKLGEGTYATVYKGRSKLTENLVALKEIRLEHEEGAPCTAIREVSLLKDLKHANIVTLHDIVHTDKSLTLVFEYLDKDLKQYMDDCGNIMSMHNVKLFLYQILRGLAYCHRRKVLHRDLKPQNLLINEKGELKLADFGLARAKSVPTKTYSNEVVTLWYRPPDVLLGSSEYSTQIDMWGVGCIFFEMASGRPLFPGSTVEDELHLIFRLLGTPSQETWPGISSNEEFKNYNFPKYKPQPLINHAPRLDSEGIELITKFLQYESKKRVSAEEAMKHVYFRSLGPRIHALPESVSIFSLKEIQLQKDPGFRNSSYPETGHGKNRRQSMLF

[12] = molecular target: Transient receptor potential cation channel subfamily M member 6 (Homo sapiens) (UniProt Q9BX84); experiment: Selectivity interaction (Ambit KINOMEscan and KiNATiv profiling in Jurkat cells) EUB0000090b TRPM6; format: cell-based; conditions: at 1 µM
Transient receptor potential cation channel subfamily M member 6 (Homo sapiens), sequence (Q9BX84 whole entry): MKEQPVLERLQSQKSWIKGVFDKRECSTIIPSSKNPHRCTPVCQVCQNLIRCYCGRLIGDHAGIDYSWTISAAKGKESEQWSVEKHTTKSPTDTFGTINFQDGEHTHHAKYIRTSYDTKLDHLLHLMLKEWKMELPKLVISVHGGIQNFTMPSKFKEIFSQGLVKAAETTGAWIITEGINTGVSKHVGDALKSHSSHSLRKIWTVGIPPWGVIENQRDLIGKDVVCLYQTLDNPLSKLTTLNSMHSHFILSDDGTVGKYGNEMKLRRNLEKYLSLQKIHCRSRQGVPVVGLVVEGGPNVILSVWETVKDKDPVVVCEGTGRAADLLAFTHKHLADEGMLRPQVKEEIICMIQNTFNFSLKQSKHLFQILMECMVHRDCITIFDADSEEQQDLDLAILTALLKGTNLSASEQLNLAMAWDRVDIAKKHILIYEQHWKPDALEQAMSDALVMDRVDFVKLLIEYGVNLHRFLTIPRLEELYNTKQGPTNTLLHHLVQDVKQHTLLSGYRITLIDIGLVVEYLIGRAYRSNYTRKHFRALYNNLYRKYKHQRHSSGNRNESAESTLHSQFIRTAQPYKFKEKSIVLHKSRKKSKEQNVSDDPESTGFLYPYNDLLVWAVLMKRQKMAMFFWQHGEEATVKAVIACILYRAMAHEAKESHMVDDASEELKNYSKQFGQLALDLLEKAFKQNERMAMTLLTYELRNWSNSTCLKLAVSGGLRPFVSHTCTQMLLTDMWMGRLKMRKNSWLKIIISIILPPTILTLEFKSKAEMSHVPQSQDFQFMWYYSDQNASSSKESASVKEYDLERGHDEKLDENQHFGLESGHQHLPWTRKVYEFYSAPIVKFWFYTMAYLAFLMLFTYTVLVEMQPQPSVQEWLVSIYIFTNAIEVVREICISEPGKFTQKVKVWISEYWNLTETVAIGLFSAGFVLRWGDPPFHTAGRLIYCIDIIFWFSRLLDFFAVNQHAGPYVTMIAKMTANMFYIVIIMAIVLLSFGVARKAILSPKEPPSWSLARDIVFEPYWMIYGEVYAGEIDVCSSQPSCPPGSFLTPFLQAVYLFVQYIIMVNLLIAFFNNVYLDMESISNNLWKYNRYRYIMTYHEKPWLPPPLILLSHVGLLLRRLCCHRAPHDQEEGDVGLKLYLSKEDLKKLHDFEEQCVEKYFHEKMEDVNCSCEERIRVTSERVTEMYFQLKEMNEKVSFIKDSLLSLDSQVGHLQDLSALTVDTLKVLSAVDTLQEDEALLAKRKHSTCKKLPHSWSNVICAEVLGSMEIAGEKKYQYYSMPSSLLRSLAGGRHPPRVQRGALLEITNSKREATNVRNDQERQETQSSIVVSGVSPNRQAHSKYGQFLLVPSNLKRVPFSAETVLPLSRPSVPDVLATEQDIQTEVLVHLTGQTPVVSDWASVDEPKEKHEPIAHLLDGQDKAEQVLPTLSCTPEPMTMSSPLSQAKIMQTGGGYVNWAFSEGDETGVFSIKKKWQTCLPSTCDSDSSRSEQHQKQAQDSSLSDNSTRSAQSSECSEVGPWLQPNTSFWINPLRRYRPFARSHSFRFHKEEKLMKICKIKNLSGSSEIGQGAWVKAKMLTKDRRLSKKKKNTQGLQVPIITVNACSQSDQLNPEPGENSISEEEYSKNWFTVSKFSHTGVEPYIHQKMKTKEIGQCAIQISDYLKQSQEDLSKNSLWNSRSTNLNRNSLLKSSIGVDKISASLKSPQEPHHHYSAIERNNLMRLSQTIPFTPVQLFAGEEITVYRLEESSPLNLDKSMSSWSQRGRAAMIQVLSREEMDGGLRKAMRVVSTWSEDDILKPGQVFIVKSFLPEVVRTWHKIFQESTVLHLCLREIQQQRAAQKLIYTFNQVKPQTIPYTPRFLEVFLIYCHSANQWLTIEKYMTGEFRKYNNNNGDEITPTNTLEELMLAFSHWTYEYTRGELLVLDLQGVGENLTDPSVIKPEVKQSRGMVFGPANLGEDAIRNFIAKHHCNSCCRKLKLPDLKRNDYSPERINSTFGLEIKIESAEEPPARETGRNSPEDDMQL

Death-associated protein kinase 2 (Homo sapiens), sequence (Q9UIK4 whole entry, looked up): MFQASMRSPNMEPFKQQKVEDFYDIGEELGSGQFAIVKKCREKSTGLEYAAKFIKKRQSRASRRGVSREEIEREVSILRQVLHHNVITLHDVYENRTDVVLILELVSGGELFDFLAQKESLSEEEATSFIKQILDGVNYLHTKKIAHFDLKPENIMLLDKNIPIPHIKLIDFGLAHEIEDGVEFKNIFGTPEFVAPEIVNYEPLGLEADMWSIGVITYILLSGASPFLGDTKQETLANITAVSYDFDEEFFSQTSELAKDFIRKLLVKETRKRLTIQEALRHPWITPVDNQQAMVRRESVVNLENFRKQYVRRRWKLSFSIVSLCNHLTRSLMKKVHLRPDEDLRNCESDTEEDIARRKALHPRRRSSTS

Work on `Nc1cnc(N2CCc3cc(S(=O)(=O)Nc4c(F)cc(Cl)cc4F)cc(N4CCCC4=O)c32)nc1` [TP-020n] yielded a % of control [1] of 91%, a % of inhibition [2] of -15.8% and a % of control [3] of 100%.

Compound `O=C(NOC[C@H](O)CO)c1ccc(F)c(F)c1Nc1ccc(I)cc1F` has a % of control [4] of 81%.

`CCC(=O)N1CC[C@H](Nc2ncnc3c2CN(c2cnc(OC)c(C(F)(F)F)c2)CC3)C1` [LENIOLISIB] gave an IC50 [5] greater than 30 µM.

`Cn1cc(-n2cnc3c(NCc4nc5cc(Cl)c(Cl)cc5[nH]4)nc(N4CCOCC4)nc32)cn1` was tested, and the % of control [6] was 19.3%.

`COc1cc(Nc2nc(C)cc(-c3cnn4nc(OC)ccc34)n2)cc(C(F)(F)F)c1` showed a % of control [7] of 95% and a % of control [8] of 100%.

`CN1Cc2nccc(-c3cn(C)nc3-c3ccc(F)cc3)c2C1=O` was tested, and the % of inhibition [9] was 5%.

With `Cn1cc(Nc2nccc(N3CC4CCC(C3)N4C(=O)[C@@H]3CC3(F)F)n2)cn1` the % of inhibition [10] was 96%.

`O[C@H]1CC[C@H](Nc2ncc3nc(Nc4c(F)cc(F)cc4F)n([C@H]4CCOC4)c3n2)CC1` gave a % of control [11] of 100%.

Compound `CN(C)C/C=C/C(=O)Nc1ccc(C(=O)N2CCCC(Nc3ncc(Cl)c(-c4c[nH]c5ccccc45)n3)C2)cc1` (configuration not stated) has a % of control [12] of 88%.
